Experimental data as given in patent publication US7501281B2, “Compositions, methods and kits related to thrombin, Notch signaling and stamatogenesis and growth of stem cells” (Maine Medical Center Research Institute, priority 2003, dated 2009).

Experiments:
human Jagged1 = target: T1, human Jagged1 (Homo sapiens, UniProt P78504, A1171G); test: Thrombin cleavage of in vitro translated Jagged1 and Edman microsequencing; format: biochemical
T1 construct: full-length Jagged1 was in vitro transcribed and translated; made in house; host or cells: cell-free: T7-coupled reticulocyte lysate in vitro transcription/translation system (Promega)
Method: A plasmid containing human Jagged1 (Zimrin et al., 1996, J. Biol. Chem. 271:32499-32502) was in vitro transcribed and in vitro translated in the presence of a (^35S)-Met/Cys protein-labeling mixture (Amersham) using the T7-coupled reticulocyte lysate system according to the manufacturer's instructions (Promega) in a total volume of 50 μl. After 60 minutes incubation at 30° C., 0.05% DTT was added, half of the reaction mixture incubated with 10 μg α-thrombin for 15 minutes at 37° C., and the reaction stopped by boiling in the presence of SDS-PAGE sample buffer. The samples were resolved by 12% SDS-PAGE, transferred to a nitrocellulose membrane, and analyzed by autoradiography. […] The products of each cycle were collected prior to resolution by HPLC, added to liquid scintillation fluid (Beckman) and the (^35S) samples quantitated by liquid scintillation spectroscopy (Beckman).
In an attempt to further define this pathway and the role that sJ1 might play in the regulation of cell proliferation, it was assessed if the Jagged1 translation product was susceptible to proteolytic cleavage by thrombin. […] The Jagged1 transcript was translated in vitro in the presence of (^35S)-Cys, resolved by SDS-PAGE, the 95 kDa fragment excised, subjected to automated Edman chemistry and the products of each cycle monitored by liquid scintillation spectroscopy. […]

NSC populations = test: Clonal expansion of NSC on NIH 3T3 transfectant feeder layer; format: cell-based
[1] = system: PAR1 null cells adenovirally-transduced with the FGF1R136K mutant; test: Immunoblot analysis of FGF1 release in PAR1 null cells; format: cell-based, mouse; settings: 10 μg/ml α-thrombin
[2] = system: FGF1R136K NIH 3T3 cell transfectants; test: Thrombin stimulation and immunoblot analysis of FGF1 release; format: cell-based, murine
Method: FGF1R136K NIH 3T3 cell transfectants or adenovirally-transduced NIH 3T3 cells were washed with DMEM containing 5 units/ml of heparin (Sigma) and stimulated with either 10 μg/ml α-thrombin (a gift from Dr. J. Fenton) or 5 μM TRAP (Sigma) at 37° C. for different periods of time. Control cells were incubated in the absence of thrombin for the same time period. Conditioned media were collected at each time period, filtered, and concentrated as previously described (Jackson et al., 1992, Proc. Natl. Acad. Sci. U.S.A. 89:10691-10695). The concentrates were resolved by SDS-PAGE and subjected to immunoblot analysis using a rabbit antibody against either FGF1 (Jackson et al., 1992), Syt1 (LaVallee et al.,1998, J. Biol. Chem. 273:22217-22223) or Myc (Oncogene). The heat shock-induced release of FGF1 was performed at 42° C. for 110 minutes as previously described (Jackson et al., 1992). Cell viability was assessed by measuring lactate dehydrogenase activity in the conditioned medium after filtration as disclosed previously elsewhere herein (published as Mandinova et al., 2003, J. Cell Sci. 116:2687-2696), and total cell lysates were obtained and processed for immunoblot analysis as described (Landriscina et al., 2001, J. Biol. Chem. 276:22544-22552).
Stable FGF1R136K NIH 3T3 cell transfectants were pre-incubated with either 100 ng/ml pertussis toxin (PTX) or 10 ng/ml cholera toxin (CT) for 60 minutes at 37° C. in DMEM containing 10% BCS. After pre-incubation, the cells were washed, stimulated with 10 μg/ml of thrombin for different periods of time in the presence of either 100 ng/ml PTX or 10 ng/ml CT, conditioned medium collected, and subjected to immunoblot analysis as described above.
Since FGF1 is known to be susceptible to thrombin cleavage at residue 136 (Erzurum et al., 2003, J. Vasc. Surg. 37:1075-1081), a thrombin-resistant FGF1 mutant (FGF1R136K; described in International Patent Publication No. WO03/052378, which is incorporated by reference in its entirety herein) was used and stable FGF1R136K NIH 3T3 cell transfectants were produced.

primary NCSC populations = test: Clonogenic differentiation of primary NCSC, dosage sensitivity to Notch ligands; format: cell-based, rat; settings: two week differentiation assay
Method: FIG. 12A depicts an RT-PCR analysis of FGF1.A mRNA expression. Briefly, populations of murine NCSC were treated for 48 hours in Morrison media supplemented with either 7.5 nM sJ1, 5.0 nM sDl1, 10 μg/ml of α-thrombin or 5 μg/ml TRAP, and the steady-state levels of the FGF1.A mRNA were measured using RT-PCR as described elsewhere herein. […] Clonogenic differentiation assays of murine NCSC populations were assessed by maintaining the cells in Morrison media supplemented with increasing concentrations of either sJ1 or sDl1. The results are presented as the number of colonies at day 14 (mean±standard deviation for at least three experiments) originating from three independent cell isolations as function of concentration of sJ1 and sDl1 using two assays of ligand sensitivity: the percentage of glial-only clones (▪-▪; ▴-▴) and the percentage of neuron-containing clones (♦-♦; ▾-▾) produced after 14 days of ligand exposure. Legend: (▴-▴)sJ1/Glial, (▾-▾) sDl1/Glial (♦-♦) sJ1/Neural and (▾-▾) sJDl1/Neural. […] Clonogenic differentiation assays of NCSC populations was assessed by maintaining the cells in Morrison media supplemented with either 7.5 nM sJ1 (▪-▪) or 5 nM sDl1 (▴-▴). The onset of gliogenic differentiation was determined by GFAP immunohistochemistry. Results are presented as the percentage of GFAP-positive clones (mean±standard deviation of three experiments). […]

T1 sequence (P78504 34-1218 A1171G): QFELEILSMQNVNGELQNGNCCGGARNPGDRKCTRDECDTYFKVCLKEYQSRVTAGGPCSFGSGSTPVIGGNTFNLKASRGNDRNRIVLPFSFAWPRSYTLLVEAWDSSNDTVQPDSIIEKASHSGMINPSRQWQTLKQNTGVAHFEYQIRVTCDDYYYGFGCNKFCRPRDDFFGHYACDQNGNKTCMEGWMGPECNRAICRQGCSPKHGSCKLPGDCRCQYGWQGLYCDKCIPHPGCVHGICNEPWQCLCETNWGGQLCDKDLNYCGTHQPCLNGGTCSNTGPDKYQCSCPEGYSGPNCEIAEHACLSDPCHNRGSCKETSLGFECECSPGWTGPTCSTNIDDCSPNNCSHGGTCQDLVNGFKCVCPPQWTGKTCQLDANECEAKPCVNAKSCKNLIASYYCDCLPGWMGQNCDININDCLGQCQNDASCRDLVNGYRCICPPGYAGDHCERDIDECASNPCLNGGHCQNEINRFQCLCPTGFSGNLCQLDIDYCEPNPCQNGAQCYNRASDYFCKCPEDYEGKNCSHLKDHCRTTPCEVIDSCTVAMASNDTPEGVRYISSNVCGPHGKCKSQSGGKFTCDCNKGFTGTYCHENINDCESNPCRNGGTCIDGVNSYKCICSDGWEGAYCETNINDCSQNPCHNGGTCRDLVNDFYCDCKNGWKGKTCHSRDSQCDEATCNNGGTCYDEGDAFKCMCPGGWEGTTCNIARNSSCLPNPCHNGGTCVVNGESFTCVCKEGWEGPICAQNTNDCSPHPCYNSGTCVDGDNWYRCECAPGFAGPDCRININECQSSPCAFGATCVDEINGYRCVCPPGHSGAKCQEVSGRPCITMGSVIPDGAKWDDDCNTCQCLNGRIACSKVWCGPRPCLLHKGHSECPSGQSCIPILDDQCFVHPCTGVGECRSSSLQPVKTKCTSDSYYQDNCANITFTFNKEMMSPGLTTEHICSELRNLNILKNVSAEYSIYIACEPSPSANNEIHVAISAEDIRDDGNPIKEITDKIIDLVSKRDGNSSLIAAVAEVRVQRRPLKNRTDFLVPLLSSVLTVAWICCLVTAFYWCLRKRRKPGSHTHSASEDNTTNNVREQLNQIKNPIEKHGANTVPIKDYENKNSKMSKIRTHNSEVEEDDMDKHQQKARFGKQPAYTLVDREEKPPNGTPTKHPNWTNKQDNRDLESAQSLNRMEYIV

Substance | Jagged1 cleavage site (human Jagged1; Edman microsequencing of the 95 kDa fragment) | cleavage products of the 134 kDa Jagged1 translation product (human Jagged1; α-thrombin 15 minutes at 37° C.) | effect on size of NSC colonies (NSC populations; full-length Delta1 NIH 3T3 cell transfectant feeder layer) | effect on size of NSC colonies (NSC populations; full-length Jagged1 NIH 3T3 cell transfectant feeder layer, 5 μg/ml thrombin) | export of the FGF1R136K mutant [1] | export of FGF2 [2] | concentration giving maximal response of FGF1R136K release ([2]; 37° C.) | export of S100A13 ([2]; 37° C., cells co-expressing S100A13 and FGF1R136K) | release of the FGF1R136K mutant into the extracellular compartment ([2]; 37° C., 10 μg/ml α-thrombin or 5 μM TRAP) | time to maximum levels of FGF-1 release after contact ([2]; FGF-1-NIH 3T3 transfectants) | release of the FGF1R136K mutant from cells with elevated Notch1 signaling ([2]; cells adenovirally transduced with caN1) | export of p40 Syt1 ([2]; p40 Syt1 adenovirally transduced) | gliogenic differentiation of the NCSC population (primary NCSC populations)
Thrombin | between residues R348 and G349 | cleavage of the full-length Jagged1 protein into 39 kDa and 95 kDa fragments | failed to induce | exaggeration of the size of the NSC colonies | unable to induce the export | unable to induce | 10 µg/mL | presence of S100A13 in the extracellular compartment | rapid and sustained appearance | one | unable to initiate the release | presence of p40 Syt1 in the extracellular compartment | –
sJ1: Soluble Jagged1, amino acid residues from about 1 to 1067 (SEQ ID NO:3) of full-length Jagged1 | – | – | – | – | – | – | – | – | – | – | – | – | capable of inducing gliogenic differentiation
